Results reported in US5854050A, “Enzyme with protease activity” (Novo Nordisk A/S, priority 1993, dated 1998).

Key:
[1] = test system: Ground defatted feed quality soy; assay: Two-step hydrolysis of feed soy (°Brix, osmolality, DH); assay type: biochemical
Procedure: Ground defatted feed quality soy was mixed with deionised water under the conditions described below. The hydrolysis was carried out in two steps in order to simulate the pH conditions in the stomach and the small intestine.
70 g ground defatted soy
Time 1st step 180 minutes
Enzymes 1st step I) Pepsin 1.92 g
II) I + Bio-Feed Pro 3.0 L
2nd step I) Pancreatin 6 g
The enzymes were added at start 0 minutes. During the hydrolysis ° Brix and osmolality were measured to follow the reaction course. According to Adler-Nissen (1986) the osmolality values can be used for calculation of the Degree of Hydrolysis (DH) by the following equation: [formula] Where Δ is the increase in osmolality mOSM, S % is protein concentration, ω is the calibration factor for the osmometer, htot is the total number of peptide bonds in the protein substrate (meqv/g protein), and fosm is the factor for converting % to g/kg H2 O. [formula]

Hen Lysozyme = assay: Cleaning of contact lenses: removal of denatured 14C-lysozyme in 3% H2O2, pH 3.5; assay type: biochemical; settings: 3% H2O2, pH 3.5, four hours, 25° C.; FIG. 7
Description: The experimental protocol was as follows:
Materials: Hen Lysozyme, L-6878 from Sigma "Rythmic" contact lens' from Essilor (Type II lens, high-water, nonionic) Protease I produced as described above Protease II produced as described above Porcine pepsin, P-6887 from Sigma Subtilisin carlsberg, Clear-Lens Pro® (Novo Nordisk A/S).
Standard buffer: 0.05M Na2 HPO4, 0.9% NaCl pH 7.5
Scintillation liquid, Optiphase "HiSafe III"
Hen lysozyme from Sigma was labelled with ^14 C through reductive methylation and purified.
A solution was made containing 0.05M Na2 HPO4, 0.9% NaCl and 0.2 mg/ml lysozyme pH 7.5. An amount of ^14 C-labelled lysozyme was added so the CPM (Counts Per Minute) is approximately 200.000. 1.0 ml of the solution was transferred to a scintillation glass. The contact lens was added and the glass placed in a water-bath at 85° C. for 30 minutes.
The contact lens was then rinsed in 3×3 ml reagent buffer. It was quartered with a scalpel. Each quarter was transferred to a new scintillation glass containing 3 ml of the reagent buffer. […]
The reaction took place over four hours at 25° C. […] 12 ml scintillation liquid was added and CPM was measured in a Packard 2500 TR liquid scintillation counter. […]
The relative amount of lysozyme removed from the lens during the combined disinfection/cleaning was calculated from the mass balance of each quarter lens. […]

[2] = STEP II (pH 6.5, with Pancreatin), 180 min

## Pepsin
[1]; STEP I (pH 4.0, 40° C.), 0 min
  mOSM: 347 mOSM
  mOSM INCREASE: 0 mOSM
  °BRIX: 5.09 °BRIX
[1]; STEP I (pH 4.0, 40° C.), 0 min, calculated from osmolality
  % DH (Degree of Hydrolysis): 0%
[1]; STEP I, 5 min
  % DH (Degree of Hydrolysis): 2.86%
  mOSM: 362 mOSM
  mOSM INCREASE: 15 mOSM
  °BRIX: 6.135 °BRIX
[1]; STEP I, 10 min
  % DH (Degree of Hydrolysis): 2.86%
  mOSM: 362 mOSM
  mOSM INCREASE: 15 mOSM
  °BRIX: 6.505 °BRIX
[1]; STEP I, 15 min
  % DH (Degree of Hydrolysis): 2.57%
  mOSM: 360.5 mOSM
  mOSM INCREASE: 13.5 mOSM
  °BRIX: 6.625 °BRIX
[1]; STEP I, 30 min
  % DH (Degree of Hydrolysis): 3.14%
  mOSM: 363.5 mOSM
  mOSM INCREASE: 16.5 mOSM
  °BRIX: 6.9275 °BRIX
[1]; STEP I, 45 min
  % DH (Degree of Hydrolysis): 3.62%
  mOSM: 366 mOSM
  mOSM INCREASE: 19 mOSM
  °BRIX: 7.345 °BRIX
[1]; STEP I, 60 min
  % DH (Degree of Hydrolysis): 4.00%
  mOSM: 368 mOSM
  mOSM INCREASE: 21 mOSM
  °BRIX: 7.745 °BRIX
[1]; STEP I, 90 min
  % DH (Degree of Hydrolysis): 4.47%
  mOSM: 370.5 mOSM
  mOSM INCREASE: 23.5 mOSM
  °BRIX: 8.175 °BRIX
[1]; STEP I, 120 min
  % DH (Degree of Hydrolysis): 4.95%
  mOSM: 373 mOSM
  mOSM INCREASE: 26 mOSM
  °BRIX: 8.695 °BRIX
[1]; STEP I, 180 min
  % DH (Degree of Hydrolysis): 6.57%
  mOSM: 381.5 mOSM
  mOSM INCREASE: 34.5 mOSM
  °BRIX: 9.195 °BRIX
[1]; [2]
  mOSM: 468 mOSM
  mOSM INCREASE: 0 mOSM
  °BRIX: 12.965 °BRIX
[1]; STEP II, 185 min
  mOSM: 996 mOSM
  mOSM INCREASE: 528 mOSM
  °BRIX: 15.135 °BRIX
[1]; STEP II, 190 min
  mOSM: 1009 mOSM
  mOSM INCREASE: 541 mOSM
  °BRIX: 15.4025 °BRIX
[1]; STEP II, 195 min
  mOSM: 1015.5 mOSM
  mOSM INCREASE: 547.5 mOSM
  °BRIX: 15.637 °BRIX
[1]; STEP II, 210 min
  mOSM: 1037.5 mOSM
  mOSM INCREASE: 569.5 mOSM
  °BRIX: 16.135 °BRIX
[1]; STEP II, 225 min
  mOSM: 1054.5 mOSM
  mOSM INCREASE: 586.5 mOSM
  °BRIX: 16.415 °BRIX
[1]; STEP II, 240 min
  mOSM: 1068.5 mOSM
  mOSM INCREASE: 600.5 mOSM
  °BRIX: 16.705 °BRIX
[1]; STEP II, 270 min
  mOSM: 1087.5 mOSM
  mOSM INCREASE: 619.5 mOSM
  °BRIX: 17.075 °BRIX
[1]; STEP II, 300 min
  mOSM: 1111 mOSM
  mOSM INCREASE: 643 mOSM
  °BRIX: 17.437 °BRIX
[1]; STEP II, 360 min
  mOSM: 1148 mOSM
  mOSM INCREASE: 680 mOSM
  °BRIX: 18.075 °BRIX

B1: Subtilisin carlsberg (protein, UniProt P00780 106-379, looked up)
Subtilisin Carlsberg: AQTVPYGIPLIKADKVQAQGFKGANVKVAVLDTGIQASHPDLNVVGGASFVAGEAYNTDGNGHGTHVAGTVAALDNTTGVLGVAPSVSLYAVKVLNSSGSGSYSGIVSGIEWATTNGMDVINMSLGGASGSTAMKQAVDNAYAKGVVVVAAAGNSGSSGNTNTIGYPAKYDSVIAVGAVDSNSNRASFSSVGAELEVMAPGAGVYSTYPTNTYATLNGTSMASPHVAGAAALILSKHPNLSASQVRNRLSSTATYLGSSFYYGKGLINVEAAAQ
notes: Subtilisin carlsberg, Clear-Lens Pro® (Novo Nordisk A/S), presently used serin protease for contact lens cleaning
Hen Lysozyme
  performance in contact lens cleaning (lysozyme removed): poor performance
